How the values were obtained:
Assay type in all cases: ADME
[1] = (§1) The drug is tested on the gut metagenome community of T-02 with ENA study accession number: PRJEB31790 for biotransformation under microaerobic condition. The drug concentrations were measured over 7 timepoints collected between 0 and 12 hours of incubation by liquid-chromatography-coupled mass spectrometry (LC–MS); design: dose 5 uM, timepoint 0, 0.75, 1.5, 3, 6, 9, 12 hours; details: 5 µM
[2] = The drug is tested on Akkermansia muciniphila strain: DSM22959 for biotransformation under anaerobic condition. The drug concentrations were measured over 6 timepoints collected between 0 and 12 hours of incubation by liquid-chromatography-coupled mass spectrometry (LC–MS); design: dose 5 uM, timepoint 0, 1.5, 3, 6, 9, 12 hours; details: 5 µM
[3] = as §1, with “A-04” for “T-02”, “anaerobic” for “microaerobic”; design: dose 5 uM, timepoint 0, 0.75, 1.5, 3, 6, 9, 12 hours; details: 5 µM
[4] = The drug is tested on Eubacterium hallii strain: DSM3353 for biotransformation under anaerobic condition. The drug concentrations were measured over 6 timepoints collected between 0 and 12 hours of incubation by liquid-chromatography-coupled mass spectrometry (LC–MS); design: dose 5 uM, timepoint 0, 1.5, 3, 6, 9, 12 hours; details: anaerobutyricum hallii, 5 µM
[5] = The drug is tested on Dorea formicigenerans strain: DSM3992 for biotransformation under anaerobic condition. The drug concentrations were measured over 6 timepoints collected between 0 and 12 hours of incubation by liquid-chromatography-coupled mass spectrometry (LC–MS); design: dose 5 uM, timepoint 0, 1.5, 3, 6, 9, 12 hours; details: 5 µM
[6] = The drug is tested on Roseburia intestinalis strain: DSM14610 for biotransformation under anaerobic condition. The drug concentrations were measured over 6 timepoints collected between 0 and 12 hours of incubation by liquid-chromatography-coupled mass spectrometry (LC–MS); design: dose 5 uM, timepoint 0, 1.5, 3, 6, 9, 12 hours; details: 5 µM
[7] = The drug is tested on Streptococcus sanguinis strain: DSM20567 for biotransformation under anaerobic condition. The drug concentrations were measured over 6 timepoints collected between 0 and 12 hours of incubation by liquid-chromatography-coupled mass spectrometry (LC–MS); design: dose 5 uM, timepoint 0, 1.5, 3, 6, 9, 12 hours; details: 5 µM
[8] = The drug is tested on Faecalibacterium prausnitzii strain: DSM17677 for biotransformation under anaerobic condition. The drug concentrations were measured over 6 timepoints collected between 0 and 12 hours of incubation by liquid-chromatography-coupled mass spectrometry (LC–MS); design: dose 5 uM, timepoint 0, 1.5, 3, 6, 9, 12 hours; details: faecalibacterium duncaniae, 5 µM
[9] = The drug is tested on Clostridium ramosum strain: DSM1402 for biotransformation under anaerobic condition. The drug concentrations were measured over 6 timepoints collected between 0 and 12 hours of incubation by liquid-chromatography-coupled mass spectrometry (LC–MS); design: dose 5 uM, timepoint 0, 1.5, 3, 6, 9, 12 hours; details: thomasclavelia ramosa, 5 µM
[10] = as §1, with “anaerobic” for “microaerobic”; design: dose 5 uM, timepoint 0, 0.75, 1.5, 3, 6, 9, 12 hours; details: 5 µM
[11] = as §1, with “P-04” for “T-02”; design: dose 5 uM, timepoint 0, 0.75, 1.5, 3, 6, 9, 12 hours; details: 5 µM
[12] = The drug is tested on Streptococcus anginosus strain: DSM20563 for biotransformation under anaerobic condition. The drug concentrations were measured over 6 timepoints collected between 0 and 12 hours of incubation by liquid-chromatography-coupled mass spectrometry (LC–MS); design: dose 5 uM, timepoint 0, 1.5, 3, 6, 9, 12 hours; details: 5 µM
[13] = The drug is tested on Streptococcus mitis strain: DSM12643 for biotransformation under anaerobic condition. The drug concentrations were measured over 6 timepoints collected between 0 and 12 hours of incubation by liquid-chromatography-coupled mass spectrometry (LC–MS); design: dose 5 uM, timepoint 0, 1.5, 3, 6, 9, 12 hours; details: 5 µM
[14] = as §1, with “T-01” for “T-02”; design: dose 5 uM, timepoint 0, 0.75, 1.5, 3, 6, 9, 12 hours; details: 5 µM
[15] = The drug is tested on Gemella haemolysans strain: DSM107751 for biotransformation under anaerobic condition. The drug concentrations were measured over 6 timepoints collected between 0 and 12 hours of incubation by liquid-chromatography-coupled mass spectrometry (LC–MS); design: dose 5 uM, timepoint 0, 1.5, 3, 6, 9, 12 hours; details: 5 µM
[16] = as §1, with “P-02” for “T-02”, “anaerobic” for “microaerobic”; design: dose 5 uM, timepoint 0, 0.75, 1.5, 3, 6, 9, 12 hours; details: 5 µM
[17] = The drug is tested on Parabacteroides distasonis strain: DSM20701 for biotransformation under anaerobic condition. The drug concentrations were measured over 6 timepoints collected between 0 and 12 hours of incubation by liquid-chromatography-coupled mass spectrometry (LC–MS); design: dose 5 uM, timepoint 0, 1.5, 3, 6, 9, 12 hours; details: 5 µM
[18] = The drug is tested on Gemella morbillorum strain: DSM20572 for biotransformation under anaerobic condition. The drug concentrations were measured over 6 timepoints collected between 0 and 12 hours of incubation by liquid-chromatography-coupled mass spectrometry (LC–MS); design: dose 5 uM, timepoint 0, 1.5, 3, 6, 9, 12 hours; details: 5 µM
[19] = as §1, with “A-06” for “T-02”, “anaerobic” for “microaerobic”; design: dose 5 uM, timepoint 0, 0.75, 1.5, 3, 6, 9, 12 hours; details: 5 µM
[20] = The drug is tested on Gemella morbillorum strain: DSM20572 for biotransformation under microaerobic condition. The drug concentrations were measured over 6 timepoints collected between 0 and 12 hours of incubation by liquid-chromatography-coupled mass spectrometry (LC–MS); design: dose 5 uM, timepoint 0, 1.5, 3, 6, 9, 12 hours; details: 5 µM
[21] = as §1, with “A-10” for “T-02”, “anaerobic” for “microaerobic”; design: dose 5 uM, timepoint 0, 0.75, 1.5, 3, 6, 9, 12 hours; details: 5 µM
[22] = The drug is tested on Ruminococcus gnavus strain: ATCC29149 for biotransformation under anaerobic condition. The drug concentrations were measured over 6 timepoints collected between 0 and 12 hours of incubation by liquid-chromatography-coupled mass spectrometry (LC–MS); design: dose 5 uM, timepoint 0, 1.5, 3, 6, 9, 12 hours; details: mediterraneibacter gnavus, 5 µM
[23] = The drug is tested on Lactobacillus gasseri strain: DSM20243 for biotransformation under anaerobic condition. The drug concentrations were measured over 6 timepoints collected between 0 and 12 hours of incubation by liquid-chromatography-coupled mass spectrometry (LC–MS); design: dose 5 uM, timepoint 0, 1.5, 3, 6, 9, 12 hours; details: 5 µM
[24] = as §1, with “A-09” for “T-02”; design: dose 5 uM, timepoint 0, 0.75, 1.5, 3, 6, 9, 12 hours; details: 5 µM
[25] = The drug is tested on Clostridium bolteae strain: DSM15670 for biotransformation under anaerobic condition. The drug concentrations were measured over 6 timepoints collected between 0 and 12 hours of incubation by liquid-chromatography-coupled mass spectrometry (LC–MS); design: dose 5 uM, timepoint 0, 1.5, 3, 6, 9, 12 hours; details: enterocloster bolteae, 5 µM
[26] = as §1, with “A-08” for “T-02”; design: dose 5 uM, timepoint 0, 0.75, 1.5, 3, 6, 9, 12 hours; details: 5 µM
[27] = The drug is tested on Bifidobacterium longum strain: DSM20088 for biotransformation under microaerobic condition. The drug concentrations were measured over 6 timepoints collected between 0 and 12 hours of incubation by liquid-chromatography-coupled mass spectrometry (LC–MS); design: dose 5 uM, timepoint 0, 1.5, 3, 6, 9, 12 hours; details: 5 µM
[28] = The drug is tested on Parabacteroides merdae strain: DSM19495 for biotransformation under anaerobic condition. The drug concentrations were measured over 6 timepoints collected between 0 and 12 hours of incubation by liquid-chromatography-coupled mass spectrometry (LC–MS); design: dose 5 uM, timepoint 0, 1.5, 3, 6, 9, 12 hours; details: 5 µM
[29] = The drug is tested on Bacteroides xylanisolvens strain: HM 722 for biotransformation under anaerobic condition. The drug concentrations were measured over 6 timepoints collected between 0 and 12 hours of incubation by liquid-chromatography-coupled mass spectrometry (LC–MS); design: dose 5 uM, timepoint 0, 1.5, 3, 6, 9, 12 hours; details: 5 µM
[30] = as §1, with “P-03” for “T-02”, “anaerobic” for “microaerobic”; design: dose 5 uM, timepoint 0, 0.75, 1.5, 3, 6, 9, 12 hours; details: 5 µM

Compound | Bacterial Biotransformation [1] | Bacterial Biotransformation [2] | Bacterial Biotransformation [3] | Bacterial Biotransformation [4] | Bacterial Biotransformation [5] | Bacterial Biotransformation [6] | Bacterial Biotransformation [7] | Bacterial Biotransformation [8] | Bacterial Biotransformation [9] | Bacterial Biotransformation [10] | Bacterial Biotransformation [11] | Bacterial Biotransformation [12] | Bacterial Biotransformation [13] | Bacterial Biotransformation [14] | Bacterial Biotransformation [15] | Bacterial Biotransformation [16] | Bacterial Biotransformation [17] | Bacterial Biotransformation [18] | Bacterial Biotransformation [19] | Bacterial Biotransformation [20] | also measured
C[C@]12C=CC(=O)C=C1CC[C@@H]1[C@@H]2[C@@H](O)C[C@@]2(C)[C@H]1CC[C@]2(O)C(=O)CO [PREDNISOLONE] | Compound metabolized | Compound NOT metabolized | Compound metabolized | Compound NOT metabolized | Compound NOT metabolized | Compound NOT metabolized | Compound NOT metabolized | Compound NOT metabolized | Compound NOT metabolized | Compound metabolized | Compound metabolized | Compound NOT metabolized | Compound NOT metabolized | Compound NOT metabolized | Compound NOT metabolized | Compound metabolized | Compound NOT metabolized | Compound NOT metabolized | Compound metabolized | Compound NOT metabolized | Bacterial Biotransformation [21]: Compound metabolized; Bacterial Biotransformation [22]: Compound metabolized; Bacterial Biotransformation [23]: Compound NOT metabolized; Bacterial Biotransformation [24]: Compound metabolized; Bacterial Biotransformation [25]: Compound NOT metabolized; Bacterial Biotransformation [26]: Compound metabolized; Bacterial Biotransformation [27]: Compound NOT metabolized; Bacterial Biotransformation [28]: Compound NOT metabolized; Bacterial Biotransformation [29]: Compound NOT metabolized; Bacterial Biotransformation [30]: Compound metabolized
C[C@]12C=CC(=O)C=C1CC[C@@H]1[C@@H]2C(=O)C[C@@]2(C)[C@H]1CC[C@]2(O)C(=O)CO [PREDNISONE] | Compound metabolized | Compound metabolized | Compound metabolized | Compound NOT metabolized | Compound NOT metabolized | Compound NOT metabolized | Compound NOT metabolized | Compound metabolized | Compound NOT metabolized | Compound metabolized | Compound metabolized | Compound NOT metabolized | Compound NOT metabolized | Compound metabolized | Compound NOT metabolized | Compound metabolized | Compound NOT metabolized | Compound NOT metabolized | Compound metabolized | Compound NOT metabolized | Bacterial Biotransformation [21]: Compound metabolized; Bacterial Biotransformation [22]: Compound metabolized; Bacterial Biotransformation [23]: Compound NOT metabolized; Bacterial Biotransformation [24]: Compound metabolized; Bacterial Biotransformation [25]: Compound NOT metabolized; Bacterial Biotransformation [26]: Compound metabolized; Bacterial Biotransformation [27]: Compound NOT metabolized; Bacterial Biotransformation [28]: Compound NOT metabolized; Bacterial Biotransformation [29]: Compound NOT metabolized; Bacterial Biotransformation [30]: Compound metabolized
CNC(=C[N+](=O)[O-])NCCSCc1ccc(CN(C)C)o1 [RANITIDINE] | Compound NOT metabolized | Compound NOT metabolized | Compound metabolized | Compound NOT metabolized | Compound NOT metabolized | Compound NOT metabolized | Compound NOT metabolized | Compound NOT metabolized | Compound NOT metabolized | Compound NOT metabolized | Compound NOT metabolized | Compound NOT metabolized | Compound NOT metabolized | Compound NOT metabolized | Compound NOT metabolized | Compound metabolized | Compound NOT metabolized | Compound NOT metabolized | Compound metabolized | Compound NOT metabolized | Bacterial Biotransformation [21]: Compound NOT metabolized; Bacterial Biotransformation [22]: Compound NOT metabolized; Bacterial Biotransformation [23]: Compound NOT metabolized; Bacterial Biotransformation [24]: Compound metabolized; Bacterial Biotransformation [25]: Compound NOT metabolized; Bacterial Biotransformation [26]: Compound metabolized; Bacterial Biotransformation [27]: Compound NOT metabolized; Bacterial Biotransformation [28]: Compound NOT metabolized; Bacterial Biotransformation [29]: Compound metabolized; Bacterial Biotransformation [30]: Compound metabolized

Source: ChEMBL document CHEMBL5724806, “Unraveling interindividual differences and functional consequences of gut microbial metabolism of immunosuppressants” (2024)
